Source: patent US10533010B2, “Substituted indole Mcl-1 inhibitors” (Vanderbilt University, priority 2014, dated 2020)

The compounds below were run against recombinant Mcl-1 (residues 172-327) (Homo sapiens (Human), UniProt Q07820) (assay: Fluorescence polarization anisotropy competition assay (FITC-Bak or FITC-Bim BH3 peptide) with Mcl-1). Conditions: Table 2; Ki bins given in nM; FITC-Bak or FITC-Bim peptide competition; Ki converted from IC50; read-out: Ki for Inhibition of Mcl-1.
Type: binding

Sequence of recombinant Mcl-1 (residues 172-327) (Q07820 172-327): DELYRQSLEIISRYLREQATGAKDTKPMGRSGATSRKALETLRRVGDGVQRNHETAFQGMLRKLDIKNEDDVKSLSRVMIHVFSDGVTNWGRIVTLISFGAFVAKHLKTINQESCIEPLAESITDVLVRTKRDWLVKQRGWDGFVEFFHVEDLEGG

Row | Ki [nM] | SMILES
1 | < 50 | Cc1cc(OCCCc2c3n(c4c(-c5c(C)nn(C)c5C)c(Cl)ccc24)CCCN(c2cccc4c2ccn4C)C3=O)cc(C)c1Cl [I-247, 8-chloro-1-(3-(4-chloro-3,5-dimethylphenoxy)propyl)-2-(1-methyl-1H-indol-4-yl)-7-(1,3,5-trimethyl-1H-pyrazol-4-yl)-2,3,4,5-tetrahydro-1H-[1,4]diazepino[1,2-a]indol-1-one]
2 | < 50 | Cc1cc(OCCCc2c3n(c4c(-c5c(C)nn(C)c5C)c(Cl)ccc24)CCN(Cc2ccc(C(=O)O)cn2)C3=O)cc(C)c1Cl [I-142, 6-((7-chloro-10-(3-(4-chloro-3,5-dimethylphenoxy)propyl)-1-oxo-6-(1,3,5-trimethyl-1H-pyrazol-4-yl)-3,4-dihydropyrazino[1,2-a]indol-2(1H)-yl)methyl)nicotinic acid]
3 | < 50 | Cc1cc(C(=O)O)ccc1N1CCCn2c(c(CCCOc3cc(C)c(Cl)c(C)c3)c3ccc(Cl)c(-c4c(C)nn(C)c4C)c32)C1=O [I-97, 4-(8-chloro-11-(3-(4-chloro-3,5-dimethylphenoxy)propyl)-1-oxo-7-(1,3,5-trimethyl-1H-pyrazol-4-yl)-4,5-dihydro-1H-[1,4]diazepino[1,2-a]indol-2(3H)-yl)-3-methylbenzoic acid]
4 | < 50 | Cc1cc(OCCCc2c(C(=O)Nc3ccnc(C(=O)O)c3)[nH]c3c(-c4c(C)nn(C)c4C)c(Cl)ccc23)cc(C)c1Cl [I-180, 4-(6-chloro-3-(3-(4-chloro-3,5-dimethylphenoxy)propyl)-7-(1,3,5-trimethyl-1H-pyrazol-4-yl)-1H-indole-2-carboxamido)picolinic acid]
5 | < 50 | Cc1cc(OCCCc2c3n(c4c(-c5c(C)nn(C)c5C)c(Cl)ccc24)CCCN(c2ccc(CC(=O)O)cc2)C3=O)cc(C)c1Cl [I-237, 2-(4-(8-chloro-11-(3-(4-chloro-3,5-dimethylphenoxy)propyl)-1-oxo-7-(1,3,5-trimethyl-1H-pyrazol-4-yl)-4,5-dihydro-H-[1,4]diazepino[1,2-a]indol-2(3H)-yl)phenyl)acetic acid]
6 | < 50 | CC[C@H](C)[C@H](NC(=O)c1ccc(CNC(=O)c2[nH]c3c(-c4c(C)nn(C)c4C)cccc3c2CCCOc2cc(C)c(Cl)c(C)c2)o1)C(=O)O [I-270, (5-((3-(3-(4-chloro-3,5-dimethylphenoxy)propyl)-7-(1,3,5-trimethyl-1H-pyrazol-4-yl)-1H-indole-2-carboxamido)methyl)furan-2-carbonyl)-L-isoleucine]
7 | < 50 | Cc1cc(OCCCc2c(C(=O)N(C)c3cccc(C(=O)O)c3)[nH]c3c(-c4c(C)nn(C)c4C)c(Cl)ccc23)cc(C)c1Cl [I-187, 3-(6-chloro-3-(3-(4-chloro-3,5-dimethylphenoxy)propyl)-N-methyl-7-(1,3,5-trimethyl-1H-pyrazol-4-yl)-1H-indole-2-carboxamido)benzoic acid]
8 | < 50 | Cc1cc(OCCCc2c(C(=O)NCc3cc(C(=O)O)c(CN4CCc5ccccc5C4)o3)[nH]c3c(-c4c(C)nn(C)c4C)cccc23)cc(C)c1Cl [I-293, 5-((3-(3-(4-chloro-3,5-dimethylphenoxy)propyl)-7-(1,3,5-trimethyl-1H-pyrazol-4-yl)-1H-indole-2-carboxamido)methyl)-2-((3,4-dihydroisoquinolin-2(1H)-yl)methyl)furan-3-carboxylic acid]
9 | < 50 | Cc1cc(OCCCc2c3n(c4c(-c5c(C)nn(C)c5C)c(Cl)ccc24)CCCN(c2cc(C(=O)O)c4c(Br)cn(C)c4c2)C3=O)cc(C)c1Cl [I-258, 3-bromo-6-(8-chloro-11-(3-(4-chloro-3,5-dimethylphenoxy)propyl)-1-oxo-7-(1,3,5-trimethyl-1H-pyrazol-4-yl)-4,5-dihydro-1H-[1,4]diazepino[1,2-a]indol-2(3H)-yl)-1-methyl-1H-indole-4-carboxylic acid]
10 | < 50 | Cc1cc(OCCCc2c3n(c4c(-c5c(C)nn(C)c5C)c(Cl)ccc24)CCCN(c2ccnc4c(C(=O)O)cccc24)C3=O)cc(C)c1Cl [I-104, 4-(8-chloro-11-(3-(4-chloro-3,5-dimethylphenoxy)propyl)-1-oxo-7-(1,3,5-trimethyl-1H-pyrazol-4-yl)-4,5-dihydro-1H-[1,4]diazepino[1,2-a]indol-2(3H)-yl)quinoline-8-carboxylic acid]
11 | < 50 | Cc1cc(OCCCc2c3n(c4c(-c5c(C)nn(C)c5C)c(Cl)ccc24)CCCN(c2cc(Cl)cc(C(=O)O)c2)C3=O)cc(C)c1Cl [I-221, 3-chloro-5-(8-chloro-11-(3-(4-chloro-3,5-dimethylphenoxy)propyl)-1-oxo-7-(1,3,5-trimethyl-1H-pyrazol-4-yl)-4,5-dihydro-1H-[1,4]diazepino[1,2-a]indol-2(3H)-yl)benzoic acid]
12 | < 50 | Cc1cc(OCCCc2c(C(=O)NCc3cccc(C(=O)NS(=O)(=O)c4cccc(C#N)c4)c3)[nH]c3c(-c4c(C)nn(C)c4C)cccc23)cc(C)c1Cl [I-30, 3-(3-(4-chloro-3,5-dimethylphenoxy)propyl)-N-(3-(((3-cyanophenyl)sulfonyl)carbamoyl)benzyl)-7-(1,3,5-trimethyl-1H-pyrazol-4-yl)-1H-indole-2-carboxamide]
13 | < 50 | Cc1cc(OCCCc2c3n(c4c(-c5c(C)nn(C)c5C)c(Cl)ccc24)C(C)CN(Cc2ccc(C(=O)O)cn2)C3=O)cc(C)c1Cl (centres unmarked) [I-129, 6-((7-chloro-10-(3-(4-chloro-3,5-dimethylphenoxy)propyl)-4-methyl-1-oxo-6-(1,3,5-trimethyl-1H-pyrazol-4-yl)-3,4-dihydropyrazino[1,2-a]indol-2(1H)-yl)methyl)nicotinic acid]
14 | < 50 | Cc1cc(OCCCc2c3n(c4c(-c5c(C)nn(C)c5C)c(Cl)ccc24)C[C@H](C)N(Cc2cccc(C(=O)O)c2)C3=O)cc(C)c1Cl [I-136, (S)-3-((7-chloro-10-(3-(4-chloro-3,5-dimethylphenoxy)propyl)-3-methyl-1-oxo-6-(1,3,5-trimethyl-1H-pyrazol-4-yl)-3,4-dihydropyrazino[1,2-a]indol-2(1H)-yl)methyl)benzoic acid]

Row | SMILES | Ki [nM]
15 | Cc1cc(OCCCc2c3n(c4c(-c5c(C)nn(C)c5C)c(Cl)ccc24)CCCN(Cc2cc(OCCC(C)C)cc(C(=O)O)c2)C3=O)cc(C)c1Cl [I-300, 3-((8-chloro-11-(3-(4-chloro-3,5-dimethylphenoxy)propyl)-1-oxo-7-(1,3,5-trimethyl-1H-pyrazol-4-yl)-4,5-dihydro-1H-[1,4]diazepino[1,2-a]indol-2(3H)-yl)methyl)-5-(isopentyloxy)benzoic acid] | < 50
16 | Cc1cc(OCCCc2c(C(=O)NCc3ccnc(N4CCc5ccccc5C4)c3)[nH]c3c(-c4c(C)nn(C)c4C)cccc23)cc(C)c1Cl [I-263, 3-(3-(4-chloro-3,5-dimethylphenoxy)propyl)-N-((2-(3,4-dihydroisoquinolin-2(1H)-yl)pyridin-4-yl)methyl)-7-(1,3,5-trimethyl-1H-pyrazol-4-yl)-1H-indole-2-carboxamide] | 301 to 500

Same assay, conditions: Table 2; Ki bins given in μM; FITC-Bak or FITC-Bim peptide competition; Ki converted from IC50; read-out: Ki for Inhibition of Mcl-1

Row | SMILES | Ki [nM]
17 | CCOC(=O)c1ccc(N2CCN(C(=O)c3[nH]c4cc(Cl)ccc4c3CCCOc3cc(C)c(Cl)c(C)c3)CC2)cc1 [I-50, ethyl 4-(4-(6-chloro-3-(3-(4-chloro-3,5-dimethylphenoxy)propyl)-1H-indole-2-carbonyl)piperazin-1-yl)benzoate] | 10000 to 50000
